# Experimental data taken from patent US10308663B2, “Inhibitors of PTP4A3 for the treatment of cancer” (University of Virginia Patent Foundation, priority 2015, dated 2019).
# What was measured:
# [1] = tested on: OVCAR-4; test: Ovarian cancer cell drug susceptibility (Alamar blue), OVCAR-4; type: cell-based, human; settings: 44 h + 4 h Alamar blue
# [2] = tested on: A2780CW (Cisplatin sensitive); test: Ovarian cancer cell drug susceptibility (Alamar blue), A2780CW; type: cell-based, human; settings: 44 h + 4 h Alamar blue
# [3] = tested on: SKOV3; test: Ovarian cancer cell drug susceptibility (Alamar blue), SKOV3; type: cell-based, human; settings: 44 h + 4 h Alamar blue
# [4] = tested on: A2780CP20 (Cisplatin resistant); test: Ovarian cancer cell drug susceptibility (Alamar blue), A2780CP20; type: cell-based, human; settings: 44 h + 4 h Alamar blue
# [5] = target: LARD1 (Homo sapiens (Human), UniProt P10586); settings: DiFMUP as a substrate; reported by Hoeger et al.; cited from earlier work
# Sequence of LARD1 (P10586 1352-1607): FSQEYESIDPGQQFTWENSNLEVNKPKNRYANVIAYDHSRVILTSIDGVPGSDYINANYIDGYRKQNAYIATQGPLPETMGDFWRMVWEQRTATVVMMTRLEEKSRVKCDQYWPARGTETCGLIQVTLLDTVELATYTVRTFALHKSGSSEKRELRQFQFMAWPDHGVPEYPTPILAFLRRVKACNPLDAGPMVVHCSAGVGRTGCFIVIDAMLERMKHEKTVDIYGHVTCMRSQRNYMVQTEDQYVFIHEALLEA
# [6] = target: PTP-Tcell (Homo sapiens (Human), UniProt P17706); settings: DiFMUP as a substrate; reported by Hoeger et al.; cited from earlier work
# Sequence of PTP-Tcell (P17706 whole entry): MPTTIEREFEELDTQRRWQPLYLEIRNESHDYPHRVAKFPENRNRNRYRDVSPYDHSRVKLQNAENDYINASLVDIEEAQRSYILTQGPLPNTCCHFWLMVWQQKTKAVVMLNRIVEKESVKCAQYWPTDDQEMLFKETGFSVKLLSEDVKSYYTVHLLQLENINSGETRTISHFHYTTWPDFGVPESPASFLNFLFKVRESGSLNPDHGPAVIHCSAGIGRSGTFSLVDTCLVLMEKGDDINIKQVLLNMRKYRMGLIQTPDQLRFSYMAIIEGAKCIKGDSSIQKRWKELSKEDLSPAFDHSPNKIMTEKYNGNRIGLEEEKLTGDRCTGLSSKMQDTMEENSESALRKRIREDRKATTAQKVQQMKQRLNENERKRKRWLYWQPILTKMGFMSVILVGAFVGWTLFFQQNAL
# [7] = target: PTPaD1 (Homo sapiens (Human), UniProt P18433); settings: DiFMUP as a substrate; reported by Hoeger et al.; cited from earlier work
# Sequence of PTPaD1 (P18433 241-501): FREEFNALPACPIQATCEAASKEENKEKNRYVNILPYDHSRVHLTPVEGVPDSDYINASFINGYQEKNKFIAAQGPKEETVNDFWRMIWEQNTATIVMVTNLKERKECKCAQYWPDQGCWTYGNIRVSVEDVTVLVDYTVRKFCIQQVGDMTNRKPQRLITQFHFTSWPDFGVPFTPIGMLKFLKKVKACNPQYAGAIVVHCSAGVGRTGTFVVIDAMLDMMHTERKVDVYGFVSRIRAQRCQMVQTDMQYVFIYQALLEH
# [8] = target: PTPeD1 (Homo sapiens (Human), UniProt P23469); settings: DiFMUP as a substrate; reported by Hoeger et al.; cited from earlier work
# Sequence of PTPeD1 (P23469 135-394): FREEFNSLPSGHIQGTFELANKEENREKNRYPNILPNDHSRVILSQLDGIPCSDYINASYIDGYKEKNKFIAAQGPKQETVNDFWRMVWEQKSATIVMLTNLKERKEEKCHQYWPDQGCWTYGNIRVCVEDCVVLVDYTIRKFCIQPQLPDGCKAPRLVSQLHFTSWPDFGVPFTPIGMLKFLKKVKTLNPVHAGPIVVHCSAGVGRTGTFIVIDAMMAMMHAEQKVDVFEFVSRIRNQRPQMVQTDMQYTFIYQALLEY
# [9] = target: PTPgD1 (Homo sapiens (Human), UniProt P23470); settings: DiFMUP as a substrate; reported by Hoeger et al.; cited from earlier work
# Sequence of PTPgD1 (P23470 848-1119): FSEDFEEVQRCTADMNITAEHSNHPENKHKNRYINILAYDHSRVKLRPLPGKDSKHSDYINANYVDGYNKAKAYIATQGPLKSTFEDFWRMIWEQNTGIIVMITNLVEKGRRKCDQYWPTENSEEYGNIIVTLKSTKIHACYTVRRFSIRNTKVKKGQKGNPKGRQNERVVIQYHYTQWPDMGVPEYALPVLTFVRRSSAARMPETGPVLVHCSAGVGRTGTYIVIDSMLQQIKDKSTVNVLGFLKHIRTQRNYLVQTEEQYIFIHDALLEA
# [10] = tested on: MsTuWT cells (Ptp4a3 wildtype); test: Cell adhesion assay (xCELLigence), MsTuWT; type: cell-based, mouse; settings: xCELLigence Cell Index
# [11] = Spontaneous conversion of 5 to 6 under assay conditions; type: physicochemical; settings: 90 min, in the presence or absence of DTT
# [12] = target: PTPb cat (Homo sapiens (Human), UniProt P23467); settings: DiFMUP as a substrate; reported by Hoeger et al.; cited from earlier work
# Sequence of PTPb cat (P23467 1703-1963): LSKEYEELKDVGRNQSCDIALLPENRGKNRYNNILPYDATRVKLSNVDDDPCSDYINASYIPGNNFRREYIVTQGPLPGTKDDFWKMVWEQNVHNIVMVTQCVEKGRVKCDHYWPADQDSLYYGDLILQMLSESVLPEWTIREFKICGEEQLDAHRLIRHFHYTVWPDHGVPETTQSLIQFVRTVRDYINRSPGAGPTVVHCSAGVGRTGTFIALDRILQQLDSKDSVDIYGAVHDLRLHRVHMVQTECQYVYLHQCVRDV
# [13] = target: SHP2 cat (Homo sapiens (Human), UniProt Q06124); settings: DiFMUP as a substrate; reported by Hoeger et al.; cited from earlier work
# Sequence of SHP2 cat (Q06124 247-517): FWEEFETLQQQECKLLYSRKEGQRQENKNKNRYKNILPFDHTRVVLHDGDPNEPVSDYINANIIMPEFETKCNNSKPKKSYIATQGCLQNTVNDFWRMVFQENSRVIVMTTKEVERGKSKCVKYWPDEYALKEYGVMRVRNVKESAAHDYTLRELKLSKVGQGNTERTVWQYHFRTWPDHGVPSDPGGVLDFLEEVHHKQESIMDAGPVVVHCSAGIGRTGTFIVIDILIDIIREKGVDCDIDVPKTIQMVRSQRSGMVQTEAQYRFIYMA
# [14] = target: CD45 (Homo sapiens (Human), UniProt P08575); settings: DiFMUP as a substrate; reported by Hoeger et al.; cited from earlier work
# Sequence of CD45 (P08575 26-1306, species assumed): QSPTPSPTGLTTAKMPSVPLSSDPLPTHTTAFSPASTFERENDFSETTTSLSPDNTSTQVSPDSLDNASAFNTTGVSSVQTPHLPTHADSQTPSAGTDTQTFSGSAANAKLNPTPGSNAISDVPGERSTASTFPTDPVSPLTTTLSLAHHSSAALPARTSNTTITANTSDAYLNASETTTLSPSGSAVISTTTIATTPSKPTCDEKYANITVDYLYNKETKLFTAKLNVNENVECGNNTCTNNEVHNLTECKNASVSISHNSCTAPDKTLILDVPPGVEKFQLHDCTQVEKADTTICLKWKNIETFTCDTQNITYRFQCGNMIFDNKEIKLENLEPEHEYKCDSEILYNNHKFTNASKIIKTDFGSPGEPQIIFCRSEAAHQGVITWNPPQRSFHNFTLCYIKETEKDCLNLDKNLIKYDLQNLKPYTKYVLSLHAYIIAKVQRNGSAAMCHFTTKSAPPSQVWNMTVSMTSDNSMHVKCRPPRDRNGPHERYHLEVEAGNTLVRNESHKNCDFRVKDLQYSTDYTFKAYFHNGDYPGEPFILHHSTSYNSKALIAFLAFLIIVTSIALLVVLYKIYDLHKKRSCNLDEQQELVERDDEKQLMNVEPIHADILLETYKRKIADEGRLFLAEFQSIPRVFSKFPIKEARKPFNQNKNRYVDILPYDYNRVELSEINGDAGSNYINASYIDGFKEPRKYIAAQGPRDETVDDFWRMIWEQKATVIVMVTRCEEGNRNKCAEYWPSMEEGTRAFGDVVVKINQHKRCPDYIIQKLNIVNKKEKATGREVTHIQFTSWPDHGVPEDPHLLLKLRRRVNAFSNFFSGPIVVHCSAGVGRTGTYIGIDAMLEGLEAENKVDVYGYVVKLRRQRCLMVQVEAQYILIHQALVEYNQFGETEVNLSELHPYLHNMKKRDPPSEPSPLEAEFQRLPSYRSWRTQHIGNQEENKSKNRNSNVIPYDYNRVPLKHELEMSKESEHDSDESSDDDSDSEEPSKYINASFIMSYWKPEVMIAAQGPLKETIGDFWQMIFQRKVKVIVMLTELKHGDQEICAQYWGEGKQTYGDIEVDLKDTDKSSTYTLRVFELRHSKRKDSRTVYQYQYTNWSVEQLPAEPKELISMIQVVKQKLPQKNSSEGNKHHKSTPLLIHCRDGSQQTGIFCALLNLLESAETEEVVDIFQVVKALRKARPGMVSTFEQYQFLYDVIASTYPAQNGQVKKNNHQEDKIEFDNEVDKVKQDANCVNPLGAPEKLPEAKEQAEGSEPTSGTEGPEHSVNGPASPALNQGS
# [15] = target: PTP1B (Homo sapiens (Human), UniProt P18031); settings: DiFMUP as a substrate; reported by Hoeger et al.; cited from earlier work
# Sequence of PTP1B (P18031 whole entry, species assumed): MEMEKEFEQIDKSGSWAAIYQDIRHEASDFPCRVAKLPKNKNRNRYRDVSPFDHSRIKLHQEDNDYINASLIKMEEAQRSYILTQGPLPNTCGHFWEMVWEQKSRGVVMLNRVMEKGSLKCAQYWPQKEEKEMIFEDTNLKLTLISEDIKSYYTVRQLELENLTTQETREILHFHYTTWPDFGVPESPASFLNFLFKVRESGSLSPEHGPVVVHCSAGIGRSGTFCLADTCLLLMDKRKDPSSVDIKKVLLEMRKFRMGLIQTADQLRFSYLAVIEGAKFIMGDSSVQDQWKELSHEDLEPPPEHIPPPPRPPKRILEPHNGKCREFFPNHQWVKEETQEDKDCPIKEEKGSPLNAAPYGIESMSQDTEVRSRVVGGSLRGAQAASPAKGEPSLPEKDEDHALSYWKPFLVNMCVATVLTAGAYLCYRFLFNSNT
# [16] = target: HCP cat (Homo sapiens (Human), UniProt P29350); settings: DiFMUP as a substrate; reported by Hoeger et al.; cited from earlier work
# Sequence of HCP cat (P29350 244-515): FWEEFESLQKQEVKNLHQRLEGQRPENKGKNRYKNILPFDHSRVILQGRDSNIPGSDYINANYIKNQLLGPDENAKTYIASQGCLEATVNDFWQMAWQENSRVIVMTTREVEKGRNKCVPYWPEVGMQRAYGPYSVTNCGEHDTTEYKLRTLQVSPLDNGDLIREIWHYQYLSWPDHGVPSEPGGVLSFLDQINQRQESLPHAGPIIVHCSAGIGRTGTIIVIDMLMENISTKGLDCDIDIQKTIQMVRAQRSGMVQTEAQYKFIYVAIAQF
SMILES,"EC50 ([1]; Homo sapiens, OVCAR-4) [µM]",EC50 ([2]; Homo sapiens) [µM],"EC50 ([3]; Homo sapiens, SK-OV-3) [µM]",EC50 ([4]; Homo sapiens) [µM],EC50 [1] [µM],EC50 [2] [µM],EC50 [3] [µM],EC50 [4] [µM],IC50 [5] [µM],IC50 [6] [µM],IC50 [7] [µM],IC50 [8] [µM],IC50 [9] [µM],MsTuWT adherence [10],spontaneous conversion of 5 to 6 [11],IC50 [12] [µM],IC50 [13] [µM],IC50 [14] [µM],IC50 [15] [µM],IC50 [16] [µM]
O=c1[nH]c(=O)c2cc(-c3ccccc3)sc2[nH]1 [JMS-557-038],> 50,> 50,> 50,> 50,,,,,,,,,,,,,,,,
O=C1NC(=S)S/C1=C/c1cc(Br)ccc1OCc1ccccc1Br [BR-1],48.5 ± 7.9,26.4 ± 1,48.3 ± 9.1,17.3 ± 2,,,,,,,,,,,,,,,,
N.N.[Cl][Pt][Cl] [Cisplatin],,,,,30.3 ± 4.4,3.7 ± 1.8,> 100,> 100,,,,,,,,,,,,
"Nc1c[nH]c(=O)c2cc(-c3ccccc3)sc12 [Thienopyridone (5), 7-amino-2-phenylthieno[3,2-c]pyridin-4(5H)-one]",15.5 ± 2.4,4.5 ± 0.6,28.8 ± 2.2,13.1 ± 6,,,,,> 100,> 100,> 100,> 100,> 100,inhibited,not detect quantifiable (>5%) spontaneous conversion,67,> 100,> 100,> 100,71
